Test system: third instar larvae of Spodoptera litura
Assay: Test Example 1: cabbage leaf immersion test, insecticidal ratio
Format: in vivo
Settings: cabbage leaf immersed 60 seconds, 2 days after, three replications
Description: A flowable formulation containing 10.0% by weight of pyridalyl (trade name: Pleo® flowable, manufactured by Sumitomo Chemical Co., Ltd.) was diluted with water containing 0.02% by volume of a spreading agent (trade name: Sindain®, manufactured by Sumitomo Chemical Co., Ltd.) so as to adjust the concentration of pyridalyl to 12.5 ppm.
A flowable formulation containing 10.0% by weight of indoxacarb (trade name: Tornado® flowable, manufactured by DuPont) was diluted with water containing 0.02% by volume of a spreading agent (trade name: Sindain®, manufactured by Sumitomo Chemical Co., Ltd.) so as to adjust the concentration of indoxacarb to 6.25 ppm.
The water dilution of pyridalyl and the water dilution of indoxacarb were mixed in the same amount to prepare a test chemical solution.
A cabbage was planted in a pot having a volume of 860 ml and grown to the forth leaf stage. Each leaf of the cabbage seedling was cut off. One leaf of the cabbage was immersed in the test chemical solution for 60 seconds. After air-drying, the leaf was placed in a cup having a volume of 500 ml in which filter paper had been spread on the bottom. In the cup, 10 third instar larvae of Spodoptera litura were released (the inside of the cup containing the treated cabbage was regarded as the treated area). […]
An insecticidal ratio was calculated by correcting the results using the following equation. […]

Compound | Insecticidal ratio (%) (active ingredient 3.13 ppm) | Insecticidal ratio (%) (active ingredient 6.25 ppm)
COC(=O)N(C(=O)N1CO[C@@]2(C(=O)OC)Cc3cc(Cl)ccc3C2=N1)c1ccc(OC(F)(F)F)cc1 [Indoxacarb, methyl(4aS)-7-chloro-2,5-dihydro-2-[[(methoxycarbonyl)[4-(trifluoromethoxy)phenyl]amino]carbonyl]indeno[1,2-e] [1,3,4]oxadiazine-4a(3H)-carboxylate] | 16.7 | 
FC(F)(F)c1ccc(OCCCOc2c(Cl)cc(OCC=C(Cl)Cl)cc2Cl)nc1 [Pyridalyl, 2-[3-[2,6-dichloro-4-[(3,3-dichloro-2-propenyl)oxy]phenoxy]propoxy]-5-(trifluoromethyl)pyridine] |  | 10.0

From patent US20130029976A1, “PEST CONTROLLING COMPOSITION” (SUMITOMO CHEMICAL COMPANY, LIMITED, priority 2010, published 2013)
